Test results: patent US11903912B2, “Composition for preventing and treating breast cancer including selenopsammaplin A as active ingredients” (Seoul National University R & DB Foundation, priority 2019, dated 2024)

Assays:
DOT1L = biological target: T1, DOT1L (Homo sapiens, UniProt Q8TEK3); assay: Inhibition of DOT1L methylation (H3K79) by western blotting; format: cell-based; conditions: breast cancer cell line, FIG. 3
T1 construct: based on the finding that DOT1L was overexpressed in the breast cancer cell line; endogenous in cells
T1 sequence (Q8TEK3 whole entry): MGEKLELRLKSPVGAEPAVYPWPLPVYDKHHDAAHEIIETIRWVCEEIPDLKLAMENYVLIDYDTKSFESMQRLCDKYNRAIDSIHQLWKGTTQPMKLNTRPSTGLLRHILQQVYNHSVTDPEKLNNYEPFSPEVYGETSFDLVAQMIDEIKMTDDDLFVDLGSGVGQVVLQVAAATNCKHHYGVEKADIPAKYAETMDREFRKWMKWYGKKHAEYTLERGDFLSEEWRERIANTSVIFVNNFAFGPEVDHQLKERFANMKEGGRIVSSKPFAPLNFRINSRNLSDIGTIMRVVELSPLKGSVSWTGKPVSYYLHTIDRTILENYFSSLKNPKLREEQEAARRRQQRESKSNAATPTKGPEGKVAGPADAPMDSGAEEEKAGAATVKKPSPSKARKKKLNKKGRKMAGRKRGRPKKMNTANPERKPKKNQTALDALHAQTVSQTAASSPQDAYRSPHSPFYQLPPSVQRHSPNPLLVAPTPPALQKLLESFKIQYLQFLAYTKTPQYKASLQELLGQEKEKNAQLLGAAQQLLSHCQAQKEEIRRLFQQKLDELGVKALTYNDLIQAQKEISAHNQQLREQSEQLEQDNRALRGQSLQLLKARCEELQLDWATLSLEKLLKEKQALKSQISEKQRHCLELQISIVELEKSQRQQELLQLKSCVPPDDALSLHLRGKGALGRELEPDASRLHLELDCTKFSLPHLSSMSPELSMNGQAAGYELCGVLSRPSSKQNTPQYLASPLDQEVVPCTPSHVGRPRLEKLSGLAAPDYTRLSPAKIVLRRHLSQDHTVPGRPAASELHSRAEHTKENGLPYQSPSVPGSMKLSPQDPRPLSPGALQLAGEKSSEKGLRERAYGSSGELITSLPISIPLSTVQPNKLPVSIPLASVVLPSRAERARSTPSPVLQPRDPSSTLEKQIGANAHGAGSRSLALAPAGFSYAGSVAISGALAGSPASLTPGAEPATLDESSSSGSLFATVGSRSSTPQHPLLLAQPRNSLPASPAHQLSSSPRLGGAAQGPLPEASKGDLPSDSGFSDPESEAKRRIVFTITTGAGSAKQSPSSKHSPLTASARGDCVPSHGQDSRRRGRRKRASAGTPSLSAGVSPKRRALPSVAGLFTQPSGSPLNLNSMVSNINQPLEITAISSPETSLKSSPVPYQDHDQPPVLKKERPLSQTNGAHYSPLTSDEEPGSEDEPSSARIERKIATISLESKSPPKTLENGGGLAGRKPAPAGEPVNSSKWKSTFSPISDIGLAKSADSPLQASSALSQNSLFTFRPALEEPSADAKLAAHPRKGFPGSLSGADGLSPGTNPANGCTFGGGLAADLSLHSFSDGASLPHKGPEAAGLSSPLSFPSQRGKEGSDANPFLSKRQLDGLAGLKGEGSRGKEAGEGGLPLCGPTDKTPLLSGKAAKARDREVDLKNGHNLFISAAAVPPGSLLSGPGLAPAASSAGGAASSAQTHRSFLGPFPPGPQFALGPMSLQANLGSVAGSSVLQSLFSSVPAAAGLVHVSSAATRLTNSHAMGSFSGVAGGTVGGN
Description: As confirmed in Example 1, based on the finding that DOT1L was overexpressed in the breast cancer cell line, the effects of the derivatives of the present invention on the methylation of the histone 3 lysine 79 (H3K79) residue, which is an in-vivo target of DOT1L, were examined by western blotting.

MDA-MB-231 cells = assay: Cancer cell invasion (Transwell) test; format: cell-based, human; conditions: MDA-MB-231, Transwell, 50-400 nM, 24 hours
Experimental: The triple-negative breast cancer cell line MDA-MB-231 was spread at a concentration of 1×10^6 cells/well on a DMEM medium containing 10% FBS in a Transwell plate, cultured at 37° C. for 24 hours under a 5% CO2 condition, and then washed once with phosphate-buffered saline (PBS). Subsequently, the cells were treated with 50-400 nM compound 2 and 400 nM psammaplin A, and then cultured for 24 hours. After washing once with PBS, a membrane was attached to a slide glass, the degree of cell invasion was photographed using a microscope, and the results thereof are illustrated in FIG. 6A. The degree of invasion compared to a control using ImageJ software is illustrated in FIG. 6B.

[1] = test system: EMT markers in MDA-MB-231 cells; assay: Gene expression of EMT markers, real-time PCR; format: cell-based, human; conditions: MDA-MB-231, real-time PCR
Experimental: To confirm the EMT-related gene expression levels of the human breast cancer cell line MDA-MB-231, an experiment was performed as follows. To examine the EMT marker expression levels of the human breast cancer cell line MDA-MB-231, breast cancer cells were spread at a concentration of 1×10^6 cells/well on an RPMI medium containing 10% FBS in a 100 mm culture dish, cultured at 37° C. for 24 hours under a 5% CO2 condition, and then washed twice with phosphate-buffered saline (PBS). Attached cells were washed twice with PBS, the TRI reagent (TRIzol (#15596-026, Invitrogen, Grand Island, N.Y.)) was used to disrupt the cells, and then CHCl3 was added thereto to extract RNA, followed by precipitation using isopropyl alcohol. The RNA precipitate was washed with 70% ethanol, dried in air, and then […] using nuclease-free water (AM9937, Ambion, Austin, Tex.), followed by heating at 55° C. for 10 minutes and heat treatment at 70° C. for 5 minutes, so that RNA was present in a single strand state. Total RNA was quantified using NanoDrop (ND-1000, Dae Myung Science, Seoul, Korea) and diluted to 1 μg/μL, and then cDNA was produced using Avian Myeloblastosis Virus (AMV) Reverse Transcriptase (M5108, Promega, Madison, Wis.) and an oligo(dT)15 primer (C110B, Promega, Madison, Wis.). A target gene was amplified in a MiniOpticon™ Real-time PCR Detection system (CFB-3120, Bio-Rad, Hercules, Calif.) using iQTM SYBR Green Supermix (#170-8880, Bio-Rad, Hercules, Calif.) and target gene-specific primers. Real-time PCR conditions were as follows: a PCR cycle of denaturation at 95° C. for 20 seconds; denaturation at 95° C. for 20 seconds; annealing at 56° C. for 20 seconds; and elongation at 72° C. for 30 seconds, and the PCR cycle was repeated 40 times, followed by the final process at 95° C. for 1 minute and at 55° C. for 1 minute. Ct values were determined by the method according to Livak K J et al ((1996) Method 25:402-408) using MJ Opticon Monitor software (Opticon Monitor 3.1.32, Bio-Rad, Hercules, Calif.), and calibrated with the Ct value of β-actin of the sample, and the mRNA expression of EMT markers in the breast cancer cell line is illustrated in FIGS. 7A to 7D.

[2] = test system: EMT markers in MDA-MB-231 cells; assay: Protein expression of EMT markers, western blot; format: cell-based, human; conditions: MDA-MB-231, western blot, FIGS. 7E and 7F
Experimental: The triple-negative breast cancer cell line MDA-MB-231 was spread at a concentration of 2×10^6 cells/well on a DMEM medium containing 10% FBS in a 6-well plate, cultured at 37° C. for 24 hours under a 5% CO2 condition, and then washed twice with phosphate-buffered saline (PBS). Attached cells were recovered and washed twice with PBS, and then boiling 2× sample loading buffer (250 mM Tris-HCl (pH 6.8), 4% SDS, 10% glycerol, 0.006% bromophenol blue, 2% β-mercaptoethanol, 50 mM sodium fluoride, and 5 mM sodium orthovanadate) was added thereto to disrupt the cells and the cells were left at 100° C. for 10 minutes. After cooling, the cells were stored at […] and […] at 37° C. immediately before use in protein quantification and electrophoresis. 10 μg of proteins were electrophoresed at 100 V for 2 hours using a 12% SDS-polyacrylamide gel (#456-1036, Bio-Rad, Hercules, Calif.). The separated proteins were transferred to a PVDF membrane (ISEQ15150, Millipore, Bedford, Mass.) at 100 V for 1 hour, and a blocking buffer (5% non-fat dry milk in TBS containing 0.1% Tween-20 (TBST)) was injected thereinto to culture the proteins at room temperature for 1 hour. After washing three times with TBST for 5 minutes, the corresponding single antibody was diluted with 5% non-fat dry milk in TBST and allowed to react with the membrane at 4° C. for 18 hours. The membrane [ISEQ 1S150, Millipore, Bedford, Mass.] was washed three times with TBST for 10 minutes, and then horseradish peroxidase (HRP)-conjugated secondary antibodies were diluted with 2.5% non-fat dry milk in TBST at a ratio of 1:2,000 and allowed to react with the membrane at room temperature for 2 hours. After washing three times with TBST for 10 minutes, the reaction product was treated with a chemiluminescent reagent (LabFrontier, Suwon, Korea) to confirm the protein expression levels of E-cadherin, N-cadherin, vimentin, and beta-actin (Fuji Film Corp., Japan) using LAS-4000 (Fuji Film Corp., Japan), and the results thereof are illustrated in FIG. 7E. The proteins were quantified using ImageJ software, which are illustrated in FIG. 7F.

breast tumors = assay: Breast tumor growth in xenograft mouse model; format: in vivo, nude BALB/c mice
Experimental: Breast cancer cells were injected into fat pads of nude BALB/c mice (8-week-old, female). When the tumor size reached about 200 mm^3, the compound was injected intraperitoneally three times a week. The tumor volume was calculated by the following equation: [volume […]=(L×W2)/2] and illustrated in FIG. 8A. 38 days after administration began, the mice were sacrificed and tumors were extracted, and the weights thereof were measured and illustrated in FIG. 8B. The body weights of the mice measured during the experiment are illustrated in FIG. 8C.

Which results are given for `O=C(NCC[Se][Se]CCNC(=O)/C(Cc1ccccc1)=N/O)/C(Cc1ccccc1)=N/O` [Compound 2, (2E,2′E)-N,N′-(diselenediylbis(ethane-2,1-diyl))bis(2-(hydroxyimino)-3-phenylpropanamide)]?
inhibitory effect on H3K79 methylation (DOT1L): excellent; invasion of breast cancer cells (MDA-MB-231 cells): effectively suppressed; mRNA expression of E-cadherin (CDH1) [1]: increased; mRNA expression of N-cadherin (CDH2) [1]: suppressed; mRNA expression of ZEB1 [1]: suppressed; mRNA expression of vimentin (VIM) [1]: suppressed; protein expression of E-cadherin [2]: increased; protein expression of N-cadherin [2]: suppressed; protein expression of ZEB1 [2]: suppressed; protein expression of vimentin [2]: suppressed; tumor weight (breast tumors; 38 days after administration began, compared to control, psammaplin A and paclitaxel groups): remarkably reduced; tumor volume (breast tumors; intraperitoneally three times a week, compared to the control): remarkably reduced; body weights of the mice (breast tumors; measured during the xenograft experiment): not affected
